Results as given in ChEMBL document CHEMBL1201862, “PubChem BioAssay data set” (2004).
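The compound was tested at five concentrations on cells cultured in 96-well plates, with a 48-hour exposure period. At the GI50, growth is halved.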 The source made the active and inactive calls. Cut-off read from the data, not from the text of the source: active = GI50 up to about 1.1 µM and inactive = higher.

Tests used:
Assay in all cases: NCI-60 cell line screen, 48 h
[1] = test system: NCI-H460
[2] = test system: OVCAR-3
[3] = test system: SF-268
[4] = test system: HCT-15
[5] = test system: SK-OV-3
[6] = test system: LOX IMVI
[7] = test system: COLO 205
[8] = test system: MDA-MB-231
[9] = test system: SNB-19
[10] = test system: NCI/ADR-RES
[11] = test system: NCI-H23
[12] = test system: HCC 2998
[13] = test system: OVCAR-8
[14] = test system: A549
[15] = test system: HL-60
[16] = test system: K562
[17] = test system: OVCAR-4
[18] = test system: MDA-MB-435
[19] = test system: UACC-62
[20] = test system: HOP-92
[21] = test system: PC-3
[22] = test system: SN12C
[23] = test system: HCT-116
[24] = test system: SK-MEL-5
[25] = test system: U-251
[26] = test system: KM12
[27] = test system: SW-620
[28] = test system: OVCAR-5
[29] = test system: CCRF-CEM
[30] = test system: UO-31
[31] = test system: NCI-H522
[32] = test system: MDA-N
[33] = test system: NCI-H226
[34] = test system: SK-MEL-28
[35] = test system: M14
[36] = test system: SNB-75
[37] = test system: HT-29
[38] = test system: SF-295
[39] = test system: RPMI-8226
[40] = test system: EKVX
[41] = test system: MCF7
[42] = test system: Malme-3M
[43] = test system: 786-0
[44] = test system: SK-MEL-2
[45] = test system: IGROV-1
[46] = test system: T47D
[47] = test system: MOLT-4
[48] = test system: DU-145
[49] = test system: BT-549
[50] = test system: HOP-62
[51] = test system: ACHN
[52] = test system: TK-10
[53] = test system: Hs-578T
[54] = test system: UACC-257
[55] = test system: SF-539
[56] = test system: CAKI-1
[57] = test system: A498
[58] = test system: RXF 393

c1cc(-c2ccc(-c3ccc(-c4ccc(-c5cccc6nsnc56)[nH]4)c4nsnc34)[nH]2)c2nsnc2c1
GI50 [1]: > 100 µM (inactive) | GI50 [2]: > 100 µM (inactive) | GI50 [3]: > 100 µM (inactive) | GI50 [4]: > 100 µM | GI50 [5]: > 100 µM (inactive) | GI50 [6]: > 100 µM (inactive) | GI50 [7]: > 100 µM (inactive) | GI50 [8]: > 100 µM (inactive) | GI50 [9]: > 100 µM (inactive) | GI50 [10]: > 100 µM (inactive) | GI50 [11]: > 100 µM (inactive) | GI50 [12]: > 100 µM (inactive) | GI50 [13]: > 100 µM (inactive) | GI50 [14]: > 100 µM (inactive) | GI50 [15]: 1.53 µM (inactive) | GI50 [16]: > 100 µM (inactive) | GI50 [17]: > 100 µM (inactive) | GI50 [18]: > 100 µM (inactive) | GI50 [19]: > 100 µM (inactive) | GI50 [20]: > 100 µM (inactive) | GI50 [21]: > 100 µM (inactive) | GI50 [22]: > 100 µM (inactive) | GI50 [23]: > 100 µM (inactive) | GI50 [24]: > 100 µM (inactive) | GI50 [25]: > 100 µM (inactive) | GI50 [26]: > 100 µM (inactive) | GI50 [27]: > 100 µM (inactive) | GI50 [28]: > 100 µM (inactive) | GI50 [29]: > 100 µM (inactive) | GI50 [30]: > 100 µM (inactive) | GI50 [31]: > 100 µM (inactive) | GI50 [32]: > 100 µM (inactive) | GI50 [33]: > 100 µM (inactive) | GI50 [34]: > 100 µM (inactive) | GI50 [35]: > 100 µM (inactive) | GI50 [36]: > 100 µM (inactive) | GI50 [37]: > 100 µM (inactive) | GI50 [38]: > 100 µM (inactive) | GI50 [39]: > 100 µM (inactive) | GI50 [40]: > 100 µM (inactive) | GI50 [41]: > 100 µM (inactive) | GI50 [42]: > 100 µM (inactive) | GI50 [43]: > 100 µM (inactive) | GI50 [44]: > 100 µM (inactive) | GI50 [45]: > 100 µM (inactive) | GI50 [46]: > 100 µM (inactive) | GI50 [47]: > 100 µM (inactive) | GI50 [48]: > 100 µM (inactive) | GI50 [49]: > 100 µM (inactive) | GI50 [50]: > 100 µM (inactive) | GI50 [51]: > 100 µM (inactive) | GI50 [52]: > 100 µM (inactive) | GI50 [53]: > 100 µM (inactive)

C=C(C)C1Cc2cc(C(C)=O)ccc2O1 (centres undefined)
GI50 [1]: > 100 µM (inactive) | GI50 [2]: > 100 µM (inactive) | GI50 [3]: > 100 µM (inactive) | GI50 [4]: > 100 µM | GI50 [5]: > 100 µM (inactive) | GI50 [6]: > 100 µM (inactive) | GI50 [7]: > 100 µM (inactive) | GI50 [8]: > 100 µM (inactive) | GI50 [54]: > 100 µM (inactive) | GI50 [9]: > 100 µM (inactive) | GI50 [10]: > 100 µM (inactive) | GI50 [11]: > 100 µM (inactive) | GI50 [12]: > 100 µM (inactive) | GI50 [13]: > 100 µM (inactive) | GI50 [55]: > 100 µM (inactive) | GI50 [14]: > 100 µM (inactive) | GI50 [15]: > 100 µM (inactive) | GI50 [16]: > 100 µM (inactive) | GI50 [17]: > 100 µM (inactive) | GI50 [18]: > 100 µM (inactive) | GI50 [19]: > 100 µM (inactive) | GI50 [20]: > 100 µM (inactive) | GI50 [21]: > 100 µM (inactive) | GI50 [22]: > 100 µM (inactive) | GI50 [23]: > 100 µM (inactive) | GI50 [24]: > 100 µM (inactive) | GI50 [25]: > 100 µM (inactive) | GI50 [26]: > 100 µM (inactive) | GI50 [27]: > 100 µM (inactive) | GI50 [28]: > 100 µM (inactive) | GI50 [29]: > 100 µM (inactive) | GI50 [30]: > 100 µM (inactive) | GI50 [31]: > 100 µM (inactive) | GI50 [32]: > 100 µM (inactive) | GI50 [33]: > 100 µM (inactive) | GI50 [34]: > 100 µM (inactive) | GI50 [56]: > 100 µM (inactive) | GI50 [35]: > 100 µM (inactive) | GI50 [36]: > 100 µM (inactive) | GI50 [37]: > 100 µM (inactive) | GI50 [38]: > 100 µM (inactive) | GI50 [39]: > 100 µM (inactive) | GI50 [40]: > 100 µM (inactive) | GI50 [41]: > 100 µM (inactive) | GI50 [42]: > 100 µM (inactive) | GI50 [43]: > 100 µM (inactive) | GI50 [44]: > 100 µM (inactive) | GI50 [45]: > 100 µM (inactive) | GI50 [46]: > 100 µM (inactive) | GI50 [47]: > 100 µM (inactive) | GI50 [48]: > 100 µM (inactive) | GI50 [49]: > 100 µM (inactive) | GI50 [51]: > 100 µM (inactive) | GI50 [52]: > 100 µM (inactive) | GI50 [53]: > 100 µM (inactive)

O=[N+]([O-])/C(C(Cl)=C(Cl)Cl)=C(\Nc1cccc2ccccc12)Sc1ccccc1
GI50 [1]: 19.8 µM (inactive) | GI50 [2]: 7.31 µM (inactive) | GI50 [3]: 12.9 µM (inactive) | GI50 [4]: 15.7 µM | GI50 [5]: 26.1 µM (inactive) | GI50 [7]: 15.1 µM (inactive) | GI50 [8]: 11.3 µM (inactive) | GI50 [54]: 14.8 µM (inactive) | GI50 [9]: 18.8 µM (inactive) | GI50 [10]: 15.2 µM (inactive) | GI50 [11]: 16 µM (inactive) | GI50 [12]: 17.8 µM (inactive) | GI50 [13]: 15.3 µM (inactive) | GI50 [55]: 19.3 µM (inactive) | GI50 [14]: 19.7 µM (inactive) | GI50 [57]: 11 µM (inactive) | GI50 [16]: 57.3 µM (inactive) | GI50 [17]: 10.4 µM (inactive) | GI50 [18]: 13.8 µM (inactive) | GI50 [19]: 10.8 µM (inactive) | GI50 [21]: 13.5 µM (inactive) | GI50 [22]: 20.2 µM (inactive) | GI50 [23]: 15 µM (inactive) | GI50 [25]: 11.4 µM (inactive) | GI50 [26]: 13.2 µM (inactive) | GI50 [27]: 8.53 µM (inactive) | GI50 [28]: 20.3 µM (inactive) | GI50 [29]: 8.55 µM (inactive) | GI50 [30]: 16 µM (inactive) | GI50 [32]: 16.5 µM (inactive) | GI50 [33]: 16.1 µM (inactive) | GI50 [34]: 18.7 µM (inactive) | GI50 [56]: 15.5 µM (inactive) | GI50 [35]: 24.9 µM (inactive) | GI50 [36]: 19.2 µM (inactive) | GI50 [37]: 19.5 µM (inactive) | GI50 [38]: 15.2 µM (inactive) | GI50 [39]: 6.89 µM (inactive) | GI50 [40]: 11.4 µM (inactive) | GI50 [41]: 12.6 µM (inactive) | GI50 [42]: 17.5 µM (inactive) | GI50 [43]: 18.4 µM (inactive) | GI50 [44]: 14.6 µM (inactive) | GI50 [46]: 19.5 µM (inactive) | GI50 [47]: > 100 µM (inactive) | GI50 [48]: 13.2 µM (inactive) | GI50 [49]: 18.4 µM (inactive) | GI50 [50]: 23.9 µM (inactive) | GI50 [51]: 13.9 µM (inactive) | GI50 [58]: 12.9 µM (inactive) | GI50 [53]: 12.8 µM (inactive)
